Data from patent US10294202B2, “Pyrrolidinones as herbicides” (FMC Corporation, priority 2013, dated 2019).

Experiments:
galium = test: Test A postemergence herbicide test; assay type: in vivo, Galium aparine; settings: for Plant response rating, Galium: 125 g ai/ha, 0 to 100 scale, 0 is no effect, 100 is complete control; for Galium plant response rating (0 to 100 scale, 0 is no effect, 100 is complete control): 500 g ai/ha
How it was run: (§1)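 Injury was rated visually about 10 days after treatment on a 0 (no effect) to 100 (complete control) scale, compared with untreated plants. Test chemicals were sprayed postemergence onto greenhouse plants 2–10 cm high at one to two leaves, grown in a loam–sand blend.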

ducksalad = test: Test B flooded paddy test; assay type: in vivo, Heteranthera limosa; settings: 500 g ai/ha, Flood; scale of 0 to 100 where 0 is no effect and 100 is complete control
How it was run: (§2)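 In-water application to pots flooded 3 cm deep, plants at 2-leaf stage. Held in greenhouse 13–15 days at constant flood depth. Scored 0–100 by eye against controls.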

giant foxtail = test: Test A pre-/postemergence herbicide test; assay type: in vivo, Setaria faberii; settings: for Plant response rating, Foxtail, Giant: 0 to 100 scale
How it was run: (§3)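 Directed soil spray to seeded pots (preemergence) or spray onto one- to two-leaf seedlings 2–10 cm tall (postemergence); loam/sand substrate throughout. Evaluated visually after about 10 days against untreated plants, 0 = no effect, 100 = complete control.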

corn = test: Test A pre-/postemergence herbicide test; assay type: in vivo, Zea mays; settings: Postemergence; for Plant response rating, Corn: 125 g ai/ha, 0 to 100 scale, 0 is no effect, 100 is complete control; for Corn plant response rating (0 to 100 scale, 0 is no effect, 100 is complete control): 500 g ai/ha
How it was run: as §3

blackgrass = test: Test A postemergence herbicide test; assay type: in vivo, Alopecurus myosuroides; settings: for Plant response rating, Blackgrass: 125 g ai/ha, 0 to 100 scale, 0 is no effect, 100 is complete control; for Blackgrass plant response rating (0 to 100 scale, 0 is no effect, 100 is complete control): 500 g ai/ha
How it was run: as §1

kochia = test: Test A pre-/postemergence herbicide test; assay type: in vivo, Kochia scoparia; settings: for Plant response rating, Kochia: 0 to 100 scale
How it was run: as §3

rice = test: Test B flooded paddy test; assay type: in vivo, Oryza sativa; settings: 500 g ai/ha, Flood; scale of 0 to 100 where 0 is no effect and 100 is complete control
How it was run: as §2

pigweed = test: Test A pre-/postemergence herbicide test; assay type: in vivo, Amaranthus retroflexus; settings: for Plant response rating, Pigweed: 0 to 100 scale
How it was run: as §3

barnyardgrass [1] = test: Test A pre-/postemergence herbicide test; assay type: in vivo, Echinochloa crus-galli
How it was run: as §3

ragweed = test: Test A pre-/postemergence herbicide test; assay type: in vivo, Ambrosia elatior; settings: for Plant response rating, Ragweed: 0 to 100 scale
How it was run: as §3

barnyardgrass [2] = test: Test B flooded paddy test; assay type: in vivo, Echinochloa crus-galli; settings: 500 g ai/ha, Flood; scale of 0 to 100 where 0 is no effect and 100 is complete control
How it was run: as §2

sedge, umbrella = test: Test B flooded paddy test; assay type: in vivo, Cyperus difformis; settings: 500 g ai/ha, Flood; scale of 0 to 100 where 0 is no effect and 100 is complete control
How it was run: as §2

ryegrass, Italian = test: Test A pre-/postemergence herbicide test; assay type: in vivo, Lolium multiflorum; settings: for Plant response rating, Ryegrass, Italian: 0 to 100 scale
How it was run: as §3

wheat = test: Test A pre-/postemergence herbicide test; assay type: in vivo, Triticum aestivum; settings: Postemergence; for Plant response rating, Wheat: 125 g ai/ha, 0 to 100 scale, 0 is no effect, 100 is complete control; for Wheat plant response rating (0 to 100 scale, 0 is no effect, 100 is complete control): 500 g ai/ha
How it was run: as §3

[3] = 125 g ai/ha, visual rating, 0 no effect, 100 complete control, approximately 10 days, preemergence
[4] = Postemergence, 125 g ai/ha, 0 is no effect, 100 is complete control
[5] = preemergence, 500 g ai/ha, 0 is no effect and 100 is complete control
[6] = 125 g ai/ha, visual rating, 0 to 100 scale, 0 no effect, 100 complete control, approximately 10 days, preemergence
[7] = Postemergence, 125 g ai/ha, 0 to 100 scale, 0 is no effect, 100 is complete control
[8] = preemergence, 500 g ai/ha, 0 to 100 scale (0 no effect, 100 complete control)

| Structure (SMILES) | Plant response rating, Galium (galium) | Galium plant response rating (0 to 100 scale, 0 is no effect, 100 is complete control) (galium) | Plant response rating, Ducksalad (ducksalad) | Plant response rating, Foxtail, Giant (giant foxtail; [3]) | Plant response rating, Foxtail, Giant (giant foxtail; [4]) | Foxtail, Giant plant response rating (0 to 100 scale, 0 is no effect, 100 is complete control) (giant foxtail; Postemergence, 500 g ai/ha) | Plant response rating, Foxtail, Giant (giant foxtail; preemergence, 500 g ai/ha) | Plant response rating, Corn (corn) | Corn plant response rating (0 to 100 scale, 0 is no effect, 100 is complete control) (corn) | Plant response rating, Blackgrass (blackgrass) | Blackgrass plant response rating (0 to 100 scale, 0 is no effect, 100 is complete control) (blackgrass) | Plant response rating, Kochia (kochia; [3]) | Plant response rating, Kochia (kochia; [4]) | Kochia plant response rating (0 to 100 scale, 0 is no effect, 100 is complete control) (kochia; Postemergence, 500 g ai/ha) | Plant response rating, Kochia (kochia; [5]) | Plant response rating, Rice (rice) | Plant response rating, Pigweed (pigweed; [3]) | Plant response rating, Pigweed (pigweed; [4]) | Pigweed plant response rating (0 to 100 scale, 0 is no effect, 100 is complete control) (pigweed; Postemergence, 500 g ai/ha) | Plant response rating, Pigweed (pigweed; [5]) | also measured |
| --- | --- | --- | --- | --- | --- | --- | --- | --- | --- | --- | --- | --- | --- | --- | --- | --- | --- | --- | --- | --- | --- |
| O=C1NCC(c2cccc(C3CC3)c2)C1C(=O)Nc1ccc(F)c(F)c1F (racemic) [Compound 168] | 60 | 70 | 100 | 90 | 90 | 90 | 90 | 30 | 70 | 40 | 60 | 40 | 40 | 60 | 60 | 0 | 40 | 0 | 40 | 50 | Plant response rating, Barnyardgrass (barnyardgrass [1]; [6]): 90; Plant response rating, Barnyardgrass (barnyardgrass [1]; [7]): 90; Barnyardgrass plant response rating (0 to 100 scale, 0 is no effect, 100 is complete control) (barnyardgrass [1]; Postemergence, 500 g ai/ha): 90; Plant response rating, Barnyardgrass (barnyardgrass [1]; [8]): 90; Plant response rating, Ragweed (ragweed; [3]): 0; Plant response rating, Ragweed (ragweed; [4]): 0; Ragweed plant response rating (0 to 100 scale, 0 is no effect, 100 is complete control) (ragweed; Postemergence, 500 g ai/ha): 20; Plant response rating, Ragweed (ragweed; [5]): 50; Plant response rating, Barnyardgrass (barnyardgrass [2]): 65; Plant response rating, Sedge, Umbrella (sedge, umbrella): 0; Plant response rating, Ryegrass, Italian (ryegrass, Italian; [3]): 0; Plant response rating, Ryegrass, Italian (ryegrass, Italian; [4]): 20; Ryegrass, Italian plant response rating (0 to 100 scale, 0 is no effect, 100 is complete control) (ryegrass, Italian; Postemergence, 500 g ai/ha): 50; Plant response rating, Ryegrass, Italian (ryegrass, Italian; [5]): 40; Plant response rating, Wheat (wheat): 0; Wheat plant response rating (0 to 100 scale, 0 is no effect, 100 is complete control) (wheat): 40 |
| CCc1cccc(C2CNC(=O)C2C(=O)Nc2cccc(F)c2F)c1 (racemic) [Compound 170] | 60 | 60 | 100 | 80 | 60 | 90 | 90 | 20 | 70 | 50 | 60 | 50 | 20 | 50 | 70 | 15 | 50 | 20 | 30 | 50 | Plant response rating, Barnyardgrass (barnyardgrass [1]; [6]): 90; Plant response rating, Barnyardgrass (barnyardgrass [1]; [7]): 90; Barnyardgrass plant response rating (0 to 100 scale, 0 is no effect, 100 is complete control) (barnyardgrass [1]; Postemergence, 500 g ai/ha): 90; Plant response rating, Barnyardgrass (barnyardgrass [1]; [8]): 90; Plant response rating, Ragweed (ragweed; [3]): 0; Plant response rating, Ragweed (ragweed; [4]): 20; Ragweed plant response rating (0 to 100 scale, 0 is no effect, 100 is complete control) (ragweed; Postemergence, 500 g ai/ha): 50; Plant response rating, Ragweed (ragweed; [5]): 60; Plant response rating, Barnyardgrass (barnyardgrass [2]): 85; Plant response rating, Sedge, Umbrella (sedge, umbrella): 0; Plant response rating, Ryegrass, Italian (ryegrass, Italian; [3]): 0; Plant response rating, Ryegrass, Italian (ryegrass, Italian; [4]): 20; Ryegrass, Italian plant response rating (0 to 100 scale, 0 is no effect, 100 is complete control) (ryegrass, Italian; Postemergence, 500 g ai/ha): 60; Plant response rating, Ryegrass, Italian (ryegrass, Italian; [5]): 50; Plant response rating, Wheat (wheat): 0; Wheat plant response rating (0 to 100 scale, 0 is no effect, 100 is complete control) (wheat): 60 |
